The test system of data set [1] is Cabernet Franc grapevines. Put plainly: Fall foliar spray of Cabernet Franc grapevines with PBI-425 or PBI-524, broken buds the following spring. It counts as in vivo. The conditions noted are these: for Average number of broken buds per vine: Apr. 11, 2012; for Effect on bud break the following spring / Impact on bud mortality: foliar application at about 0.03-0.3 grams per vine in the fall. On the procedure: A study was conducted to determine the elect of spraying Cabernet Franc grapevines with ABA analog PBI-425 or PBI-524 in the fall on bud break the following spring. Mature Cabernet Franc grapevines growing in a research vineyard in Benton Harbor, Mich. were sprayed to drip with surfactant alone or surfactant and ABA analog on Oct. 21, 2011. Vines were sprayed with approximately 300 ml applied to each of 9 vines per treatment arranged in three replicates of three vines each. Applied at about 100 gallons per acre 100 ppm treatment represents 37.8 grams per acre and 1000 ppm represents 378.4 grams per acre. In the spring after treatment prior to bud break the vines were pruned to 3-6 buds per spur and bud break of the entire vine was determined in the spring.

The test system of data set [2] is Cabernet Franc grapevines. The experiment in a line: Fall foliar spray of Cabernet Franc grapevines, fruit maturity the following fall (juice pH and Brix). It counts as in vivo. The conditions noted are these: for Brix of juice / pH of juice: 300 ppm in 0.1% Brij 98, fall foliar application, grapes harvested on Oct. 24, 2009; for Effect on maturation of the following crop of grapes (juice pH and Brix): foliar application at about 0.125 grams per vine in the fall. The method, then: (§1) A study was conducted to determine the effect of spraying grapevines with ABA analogs in the fail on bud break the following spring. Mature Cabernet Franc grapevines growing in a research vineyard in Benton Harbor, Mich. were sprayed to drip with surfactant alone or surfactant and ABA analog on Oct. 25, 2008. Vines were sprayed with approximately 300 ml (113 grams ABA analog/acre) applied to each of 9 vines per treatment arranged in three replicates of three vines each. The following spring prior to bud break the vines were pruned to 3-6 buds per spur and bud break of 40 buds per vine (4 buds on each of 10 spurs) was rated periodically using the BBCH (Biologische Bundesanstalt, Bundessortenamt und Chemische Industrie) scale of development where a rating of 1 represents the first sign of bud swelling and 99 represents a defoliated plant re-entering dormancy at the end of the growing season.
When the control fruit had reached maturity three clusters of grapes were randomly harvested from each 3 vine replicate. Brix and pH measurements were made of the juice expressed by hand squeezing the grape clusters. Both the pH and Brix readings were lower for the grapes from the ABA analog treated vines indicating a delay of fruit maturity.

In data set [3] the test system is Cabernet Franc grapevines. The experiment in a line: Fall foliar spray of mature Cabernet Franc grapevines, bud break the following spring (BBCH rating). It counts as in vivo. The conditions noted are these: for Average BBCH rating of bud developmental stages: 300 ppm in 0.1% Brij 98, fall foliar application; for Delay of bud break the following spring / Impact on bud mortality: foliar application at about 0.125 grams per vine in the fall. The arrangement: key to Average BBCH rating of bud developmental stages: BBCH scale: 1 = first bud swelling, 99 = defoliated, re-entering dormancy. On the procedure:
as §1

In data set [4] the test system is PF-11 nectarine trees. The experiment in a line: Fall foliar spray of PF-11 nectarine trees, bud break the following spring. It counts as in vivo. On the procedure: (§2) A study was conducted to determine the effect of spraying nectarine trees with ABA or ABA analogs in the fall on bud break the following spring. Mature PF-11 nectarine trees were sprayed to drip with surfactant alone or surfactant and ABA or ABA analog on Oct. 19, 2009. Trees were sprayed with approximately 500 ml (20.5 grams ABA analog/acre) applied to each of 6 trees per treatment arranged in a randomized complete block design. The following spring bud break on pre-selected branches was monitored.

For data set [5], the system named is Concord grapevines. The experiment in a line: Fall soil drench of potted Concord grapevines, bud break the following spring. It counts as in vivo. Also on record: key to Average rating of bud break (1-6 scale): 1 = no growth to 6 = three or more leaves showing. The conditions noted are these: for Average rating of bud break (1-6 scale): 100 ppm (100 mg/pot) fall soil drench. On the procedure:
A study was conducted to determine the effect of application of ABA or ABA analog as a soil drench in the fall on bud break of potted Concord grapevines the following spring. Two year old eco-dormant Concord grapevines were obtained from a Concord Nurseries in the spring. Bare-root vines were planted in 14 liter pots filled with Promix BX (available from Premier Horticulture Inc. Quakertown, Pa.) and grown outside for about 5 months (May October) prior to treatment. Plants received irrigation as needed and fertilized weekly (1 g/L all purpose fertilizer 20-20-20, The Scotts Company, Marysville, Ohio). Uniform plants were selected for the study. A total of 1000 mL of water or chemical solution was applied to the soil of each plant.
After chemical treatment, the ten replicate plants per treatment were arranged in a randomized complete block experimental design. The potted vines were surrounded by bark chips the depth of the soil in the pot to insulate the roots and prevent cold damage. The plants became dormant for the winter. In the following spring the vines were pruned to 5 buds per vine before bud break and bud break was monitored over time (Table 4). The buds were rated for bud break periodically on a scale from 1 for no growth to 6 for three or more leaves showing
Potted Concord grapevines were treated with 1000 mL water, solution containing 1000 mg ABA or solution containing 100 mg PBI-429. The dose of RBI-429 was used at one-tenth of ABA dose based on the preliminary results.

For data set [6], the system named is Concord grapevines. The experiment in a line: Repeated spray of potted Concord grapevines during the bud break period. The format is in vivo. The conditions noted are these: for Average number of broken buds per vine: 100 ppm in 0.05% Silwet L77, repeated spray. On the procedure:
A study was conducted to determine the effect of spraying Concord grapevines with ABA or ABA analog PBI-429 during bud break. Potted concord grapevines were placed in greenhouse conditions to promote bud break and the vines were repeatedly sprayed with ABA or ABA analog solutions. The vines were sprayed 2, 4, 8, 12 and 14 days after exposure of the vines into bud break promoting temperatures. Bud break was rated 6, 7, 8, 11, 12, 13, 14, 15, 19 and 20 days after vines were placed in warm bud break promoting conditions.

The test system of a further data set is Concord grape vines. Put plainly: Spring spray of eco-dormant field grown Concord grape vines, bud break. The format is in vivo, Concord grapevines. The conditions noted are these: 100 ppm PBI-429 plus 0.5% Brij 98, sprayed 2 times in spring. On the procedure:
A study was conducted to evaluate the effect of spraying eco-dormant Concord grape vines with ABA or ABA analog plus surfactants on bud break. Mature field grown Concord grape vines were sprayed to runoff 2 times in the spring after pruning and before bud swell. Three replicates of 3 vines each were treated with each treatment solution. Treatments were arranged in a randomized complete block design down a single vineyard row, Bud break was monitored by counting the number of broken buds of the distal 5 buds on 4 proximal canes on the middle vine of each 3 vine replicate. Bud break was only very slightly delayed by any of the treatments compared to the water sprayed control (Table 1).

For data set [7], the system named is PF-11 nectarine trees. Put plainly: Fall foliar spray of PF-11 nectarine trees, fruit number per tree the following spring. The format is in vivo. On the procedure:
as §2

[8] abbreviates: 100 ppm in 0.1% Silwet Brij 98, fall foliar application.

Take `C#CC1(C)CC(=O)C=C(C)C1(O)C=CC(C)=CC(=O)O` (racemic) [PBI-524]: the “Average number of broken buds per vine” value in data set [1] (setting [8]) is 13; in data set [1] (1000 ppm in 0.1% Silwet Brij 98, fall foliar application) it was 2. Moreover, in data set [1], the “Effect on bud break the following spring” value is “delayed bud break”. In addition, the “Impact on bud mortality” value in data set [1] and in data set [3] was “without apparent impact on bud mortality” throughout. For the same molecule, the Brix of juice in data set [2] is given as 19.37. Further, the pH of juice in data set [2] stood at 3.14. The “Effect on maturation of the following crop of grapes (juice pH and Brix)” value in data set [2] is “delayed maturation”. For the same molecule, the “Average BBCH rating of bud developmental stages” value was 0.0 in data set [3] (May 1, 2009); 0.4 in data set [3] (May 5); 1.0 in data set [3] (May 12); 3.7 in data set [3] (May 21); 6.7 in data set [3] (May 28). Also, in data set [3], the “Delay of bud break the following spring” value is recorded as “about 15 days”.

In the case of `C#CC1(C)CC(=O)C=C(C)C1(O)C=CC(C)=CC(=O)O` (centres unmarked) [PBI-425], in data set [1] (setting [8]), the “Average number of broken buds per vine” value was 11. Moreover, in data set [1], the “Effect on bud break the following spring” value was “delayed bud break” and the “Impact on bud mortality” value is reported as “without apparent impact on bud mortality”.

As for `C#CC1(C)CC(=O)C=C(C)C1(O)/C=C/C(C)=C\C(=O)OC` (centres unmarked) [PBI-429, 8′acetylene-ABA methyl ester], in the data set with PF-11 nectarine trees [4] (100 ppm PBI-429 versus 10,000 ppm ABA, fall foliar application), the “Potency relative to ABA in delaying bud break” value is recorded as “about 100 times”. For the same molecule, the “Percentage of broken floral buds” value with PF-11 nectarine trees [4] (100 ppm in 0.1% Brij 98, fall foliar application, April 8) came out at 56 Percentage. The molecule also displayed a Brix of juice in data set [2] of 19.32. The molecule further showed a pH of juice in data set [2] of 3.16. The “Effect on maturation of the following crop of grapes (juice pH and Brix)” value in data set [2] is “delayed maturation”. Further, the “Delay of bud break compared to ABA treated or untreated vines” value in the data set on Concord grapevines [5] (100 mg fall soil drench) is listed as “about 2 weeks”. Also, the “Average rating of bud break (1-6 scale)” value in the data set on Concord grapevines [5] (Apr. 23, 2008) is given as 1.0; in the data set with Concord grapevines [5] (April 28) it was 1.0; with Concord grapevines [5] (April 30), 1.0; in the data set with Concord grapevines [5] (May 2), 1.0; in the data set on Concord grapevines [5] (May 5) it was 1.0; in the data set with Concord grapevines [5] (May 7) it was 1.0. The “Average rating of bud break (1-6 scale)” value with Concord grapevines [5] (May 9) stood at 1.0; in the data set with Concord grapevines [5] (May 12), 1.0; in the data set on Concord grapevines [5] (May 14) it was 1.0; in the data set on Concord grapevines [5] (May 16), 1.0; with Concord grapevines [5] (May 19), 1.2; with Concord grapevines [5] (May 21), 1.2. The “Average rating of bud break (1-6 scale)” value with Concord grapevines [5] (May 23) worked out at 1.8; with Concord grapevines [5] (May 28) it was 2.7. The “Average number of broken buds per vine” value in the data set on Concord grapevines [6] (6 days after warming) was 0.7; in the data set on Concord grapevines [6] (7 days after warming), 0.7; in the data set on Concord grapevines [6] (8 days after warming), 1.7; in the data set with Concord grapevines [6] (11 days after warming), 2.5; with Concord grapevines [6] (12 days after warming) it was 2.5; in the data set on Concord grapevines [6] (13 days after warming) it was 3.0. Besides, the “Average number of broken buds per vine” value is recorded as 3.0 in the data set with Concord grapevines [6] (14 days after warming), 4.0 with Concord grapevines [6] (15 days after warming), 4.3 in the data set on Concord grapevines [6] (19 days after warming) and 4.3 with Concord grapevines [6] (20 days after warming). Moreover, the “Effect on average number of broken buds over time” value in the data set with Concord grapevines [6] (repeated spray application during the bud break period) is listed as “not significantly impacted”. For the same molecule, the entries for the “Average percent broken buds” value with Concord grape vines (April 24) and with Concord grape vines (April 30) were 8% and 18%, respectively. Besides, the “Average number of fruit per tree” value in the data set on PF-11 nectarine trees [7] (100 ppm in 0.1% Brij 98, fall foliar application, June 10) worked out at 75. Further, the “Effect on number of fruit per tree the following spring” value with PF-11 nectarine trees [7] (fall foliar application) was “reduced the number of fruit per tree”. Moreover, the “Average BBCH rating of bud developmental stages” value in data set [3] (May 1, 2009) is listed as 0.1; in data set [3] (May 5) it was 0.4; in data set [3] (May 12) it was 1.0; in data set [3] (May 21), 3.2; in data set [3] (May 28), 6.0. In data set [3], the “Delay of bud break the following spring” value is “about 15 days”. In data set [3], the “Impact on bud mortality” value was “without apparent impact on bud mortality”.

The values are drawn from patent US20130072385A1, “METHODS FOR DELAYING BUD BREAK BY APPLYING ABA ANALOGS” (priority 2011, published 2013).
